# Measured values from patent publication US6593311B2, “Apoptosis inducers” (Takara Shuzo Co., Ltd., priority 1996, dated 2003).
# Numbered stars: 1 amine (or outer) side, 2 acyl side, 3 side chain; on linkers, the order of the positions; unused ones are H or OH. Bridge positions count the residues as written; N and C are the ends. Square brackets hold non-standard residues; d marks the D form. Peptide text beside a SMILES is read from it. I, II: the chains in the order shown. Actinocin(9to1) = Cc1c2oc3c(C)ccc(C(=O)[*:1])c3nc-2c(C(=O)[*:2])c(N)c1=O; NMeV = CN[C@H](C(=O)O)C(C)C; Sar = CNCC(=O)O
# Assays:
# [1] = test system: Human acute lymphatic leukemia cells MOLT-3; assay: DNA ladder detection by agarose gel electrophoresis in MOLT-3 cells; settings: Example 23; 10 μg/ml solution of actinomycin D; 20 hours
# [2] = test system: Human premyelocytic leukemia cells HL-60; assay: Viable count (Trypan Blue) and microscopic morphology of HL-60 cells; type: cell-based; settings: Example 25; 10 μg/ml solution of actinomycin D; 20 hours
# [3] = test system: Human premyelocytic leukemia cells HL-60; assay: DNA ladder detection by agarose gel electrophoresis in HL-60 cells
# [4] = test system: Human acute lymphatic leukemia cells MOLT-3; assay: Viable count (Trypan Blue) of MOLT-3 cells; type: cell-based; settings: Example 24
# Method: Then the suspension was pipetted into a 24-well plate (mfd. by FALCON) at a ratio of 1.8 ml/well. […] As a control, PBS alone was added in the same amount and incubation was effected in the same manner. 2, 4, 6 and 8 days after the initiation of the incubation, the cells were counted by the Trypan Blue staining method.
# In this figure, the abscissa refers to the incubation time (day) while the ordinate refers to the viable count (×10^4 cells /2 ml) in the culture medium. In FIG. 28, the open circle stands for the control (no addition), the solid circle stands for the sulfated-fucose-containing polysaccharide-F obtained in Example 12, the open square stands for the sulfated-fucose-containing polysaccharide obtained in Example 1, the open triangle stands for that obtained in Example 17 and the solid square stands for that obtained in Example 15.
# [5] = test system: Human colonic cancer cells HCT 116; assay: Viable count (Trypan Blue) and morphology of HCT 116 cells; type: cell-based; settings: Example 28; for cell morphology (characteristics of apoptosis) / change in cell count / viable count versus incubation time curve (FIG. 29): 0.5 mg/ml, autoclaved; for change in cell count / viable count versus incubation time curve (FIG. 29): 1 to 4 days; for effects of inducing apoptosis, filter-treated samples: 5 mg/ml solutions in PBS treated with a filter
# Method: Then the suspension was pipetted into a 24-well plate (mfd. by FALCON) at a ratio of 1.8 ml/well. […] As a control, PBS alone was added in the same amount and incubation was effected in the same manner. 1, 2, 3 and 4 days after the initiation of the incubation, the viable cells were counted in accordance with the method described in “Soshiki Baiyo no Gijutsu” (second ed.), Asakura Shuppan, ed. by Nippon Soshiki Baiyo Gakkai, 26-28 (1990), namely, by the Trypan Blue staining method on a counting chamber.
# In this figure, the abscissa refers to the incubation time (day) while the ordinate refers to the viable count (×10^4 cells /2 ml) in the culture medium. In FIG. 29, the open circle stands for the control (no addition), the solid circle stands for the sulfated-fucose-containing polysaccharide preparation obtained in Example 1 and the solid square stands for the sulfated-fucose-containing polysaccharide mixture obtained in Example 1.
# Then the suspension was pipetted into a 24-well plate (mfd. by FALCON) at a ratio of 1.8 ml/well. […] As a control, PBS alone was added in the same amount and incubation was effected in the same manner. After the initiation of the incubation, the viable cells were counted with the passage of time in accordance with the method described in “Soshiki Baiyo no Gijutsu” (second ed.), Asakura Shuppan, ed. by Nippon Soshiki Baiyo Gakkai, 26-28 (1990), namely, by the Trypan Blue staining method on a counting chamber.
Compound,DNA ladders [1],cell morphology (shrinkage and fragmentation) [2],"DNA ladders ([3]; Example 20, 10 μg/ml solution of actinomycin D, 20 hours)","DNA ladders ([3]; Example 35, Actinomycin D as substitute for F-Fd-4)","effects of inducing apoptosis, autoclaved samples ([4]; 0.5 mg/ml in PBS, autoclave 121° C. 20 minutes)","apoptosis induction and growth inhibition (viable count, FIG. 28) ([4]; 0.2 ml of 0.5 mg/ml solution per 1.8 ml well (text: concentration of 0.5 mg/ml), 2, 4, 6 and 8 days)",viable count versus incubation time curve (FIG. 28) ([4]; 2 to 8 days),cell morphology (characteristics of apoptosis) [5],change in cell count [5],viable count versus incubation time curve (FIG. 29) [5],"effects of inducing apoptosis, filter-treated samples [5]"
"Cc1c2oc3c(C)ccc(C(=O)N[C@@H]4C(=O)N[C@H](C(C)C)C(=O)N5CCC[C@H]5C(=O)N(C)CC(=O)N(C)[C@@H](C(C)C)C(=O)O[C@@H]4C)c3nc-2c(C(=O)N[C@@H]2C(=O)N[C@H](C(C)C)C(=O)N3CCC[C@H]3C(=O)N(C)CC(=O)N(C)[C@@H](C(C)C)C(=O)O[C@@H]2C)c(N)c1=O [actinomycin D] (I: T[dV]P[Sar][NMeV] / II: T[dV]P[Sar][NMeV]; ester I:1-I:C, II:1-II:C; linker I:N-II:N via Actinocin(9to1))",DNA ladders were observed,the shrinkage and fragmentation of the cells were observed,DNA ladders were observed,DNA ladders were observed,,,,,,,
dextran sulfate,,,,,the same results were obtained,induce the apoptosis of the MOLT-3 cells and considerably inhibit the growth of these cells,substantially the same curve as the one obtained by using the sulfated-fucose-containing polysaccharide of Example 15,showed characteristics of apoptosis such as the shrinkage and fragmentation of the cells,little increase or a decrease in cell count,substantially the same curve as the one of the sulfated-fucose-containing polysaccharide preparation of Example 1,the same results were obtained
heparin,,,,,,,,showed characteristics of apoptosis such as the shrinkage and fragmentation of the cells,little increase or a decrease in cell count,substantially the same curve as the one of the sulfated-fucose-containing polysaccharide preparation of Example 1,the same results were obtained
